Literature values in patent US7473685B2, “Process for preparation of chemically stable, dry-flow, low compact, dust free, soluble granules of phosphoroamidothioates” (United Phosphorus, Ltd., priority 2001, dated 2009).

System: aphids, leaf-miners, lepidopterous, larvae, sawflies and thrips
Settings: systemic and contact insecticide of moderate persistence

Structure (SMILES): COP(=O)(NC(C)=O)SC (stereo not shown) [Acephate]
- residual activity lasting: 10 to 15 days
